According to patent publication US7012082B2, “Method of correcting HERG channel dysfunction” (priority 2002, dated 2006):

Columns and labels:
HERG N470D = target: T1, HERG N470D (Homo sapiens, UniProt Q12809, N470D); settings: cultured at physiological temperature in low concentrations of drug; earlier publications; cited from earlier work
T1 construct: expressed in transfected cells

[1] = target: T2, HERG N470D mutant channels (Homo sapiens, UniProt Q12809, N470D); settings: cultured at physiological temperature in low concentrations of drug; earlier publications; cited from earlier work
[2] = target: T2, HERG N470D mutant channels

Row | Compound | mature HERG protein band on western blot, N470D cells (HERG N470D) | HERG current after drug washout, N470D cells (pharmacological rescue) [1] | rescue of N470D current [2]
1 | COc1cc(N)c(Cl)cc1C(=O)NC1CCN(CCCOc2ccc(F)cc2)CC1OC (stereo not drawn) [cisapride] | appearance on western blot analysis of the mature HERG protein band | large amplitude HERG current could be recorded | 
2 | Sodium-phenylbutyrate [4PBA] |  |  | did not rescue N470D current
